The subject of one data set is E. coli O157:H7. Kind of data set: Biofilm inhibition, static microtitre plate assay, crystal violet (Table 17). Particulars: BM2 minimal media.
For data set [1], the system named is Salmonella typhimurium (ATCC 14028). Described as above. Particulars: BM2 minimal media.
The test system of data set [2] is S. aureus (methicillin resistant clinical isolate C623). The data set is described as follows: Biofilm inhibition, static microtitre plate assay, crystal violet (Table 17; FIG. 19). Particulars: 10% tryptic soy broth with 0.1% glucose.
A further data set relates to P. aeruginosa (PAO1). The data set is described as above. The conditions noted are these: BM2 minimal media.
Data set [3] has as its system Bordatella bronchiseptica (Bb). It counts as cell-based. The procedure:
(§1) The following strains were assessed vs. Staphylococcus epidermidis (Se), Pseudomonas aeruginosa (Pa), Streptococcus dysgalactiae (Sd), Pasteurella multocida (Pm), Streptococcus agalactiae (Sa), Streptococcus uberis (Su), Streptococcus suis (Ss), Mannheimia haemolytica (Mh), Bordatella bronchiseptica (Bb), Histophilus somnus (Hs), and Staphylococcus pseudintermedius (Sp) (Table 18) for Minimal Inhibitory Concentrations (MIC). Italics=excellent activity (less than or equal to 4 μg/ml).

Data set [4] deals with Histophilus somnus (Hs). It counts as cell-based. As for the experimental part:
as §1

Data set [5] deals with Mannheimia haemolytica (Mh). The format is cell-based. As for the experimental part:
as §1

Data set [6] relates to Pasteurella multocida (Pm). The format is cell-based. The procedure:
as §1

The subject of data set [7] is Pseudomonas aeruginosa (Pa). It counts as cell-based. The procedure:
as §1

Data set [8] deals with Staphylococcus epidermidis (Se). It counts as cell-based. As for the experimental part:
as §1

The test system of data set [9] is Staphylococcus pseudintermedius (Sp). The format is cell-based. The procedure: as §1
Data set [10] concerns Streptococcus agalactiae (Sa). It counts as cell-based. The procedure:
as §1

Data set [11] concerns Streptococcus dysgalactiae (Sd). It counts as cell-based. The procedure: as §1
Data set [12] relates to Streptococcus suis (Ss). It counts as cell-based. The procedure:
as §1

In data set [13] the test system is Streptococcus uberis (Su). It counts as cell-based. As for the experimental part: as §1
Data set [14] concerns E. coli (Ec). It counts as cell-based. Particulars: Ec.
Data set [15] concerns S. aureus (Sau). The format is cell-based. Particulars: Sau.
In data set [16] the test system is Bordatella bronchiseptica (Bb). It counts as cell-based. As for the experimental part: (§2) The same strains as in Table 18 were assessed for Minimal Biofilm Inhibitory Concentrations (MBIC) (Table 19). Italics=excellent activity (less than or equal to 4 μg/ml). ND=Not determined. Peptides 3013, 3015 and 3016 inhibited biofilm growth in the largest number of bacterial strains (5, 5 and 6 out of 13 strains, respectively).
This is another data set of the same source.

In data set [17] the test system is Histophilus somnus (Hs). The format is cell-based. The procedure: as §2
This is another data set of the same source.

Data set [18] concerns Mannheimia haemolytica (Mh). The format is cell-based. As for the experimental part:
as §2
This is another data set of the same source.

Data set [19] has as its system Pasteurella multocida (Pm). It counts as cell-based. The procedure:
as §2
This is another data set of the same source.

Data set [20] relates to Pseudomonas aeruginosa (Pa). The format is cell-based. As for the experimental part: as §2
The source holds these as a separate data set.

Data set [21] deals with Staphylococcus epidermidis (Se). The format is cell-based. As for the experimental part: as §2
This is another data set of the same source.

Data set [22] relates to Staphylococcus pseudintermedius (Sp). It counts as cell-based. The procedure: as §2
This is another data set of the same source.

Data set [23] deals with Streptococcus agalactiae (Sa). It counts as cell-based. The procedure: as §2
This is another data set of the same source.

For data set [24], the system named is Streptococcus dysgalactiae (Sd). The format is cell-based. The procedure:
as §2
This is another data set of the same source.

The test system of data set [25] is Streptococcus suis (Ss). The format is cell-based. The procedure:
as §2
This is another data set of the same source.

In data set [26] the test system is Streptococcus uberis (Su). The format is cell-based. As for the experimental part:
as §2
The source holds these as a separate data set.

Data set [27] relates to E. coli (Ec). The format is cell-based. Particulars: Ec. The source holds these as a separate data set.
Data set [28] concerns S. aureus (Sau). It counts as cell-based. Particulars: Sau. This is another data set of the same source.
Data set [29] concerns planktonic methicillin resistant S. aureus. Kind of data set: microbe, parasite or virus in culture. The format is cell-based, Staphylococcus aureus. Particulars: planktonic methicillin resistant.
A further data set has as its system PBMCs. Kind of data set: Cytotoxicity towards PBMCs, lactate dehydrogenase (LDH) release assay (Tables 6, 7). The conditions noted are these: SPOT synthesized peptide ~25 μM, PBMCs from 3 human donors; Table 6.

Non-standard residues stand in square brackets, D forms with d. No end group written: not given here.

For “KVVWIKVKIKLV ([dK][dV][dV][dW][dI][dK][dV][dK][dI][dK][dL][dV]) [RI-3007]”, the “peptide concentration that inhibited more than 90% of adhered biofilm biomass, E. coli (O157:H7)” value in the data set on E. coli O157:H7 was found to be 16 µM. Moreover, the “peptide concentration that inhibited more than 90% of adhered biofilm biomass, S. typhimurium (ATCC 14028)” value in data set [1] was 16 µM. Moreover, in data set [2], the “peptide concentration that inhibited more than 90% of adhered biofilm biomass, S. aureus (C623)” value is 16 µM. In the data set with P. aeruginosa (PAO1), the “peptide concentration that inhibited more than 90% of adhered biofilm biomass, P. aeruginosa (PAO1)” value worked out at 32 µM.

Regarding “VLKIKVKIWVVK (not fully specified; also: D-amino acid(s), positions not given here) [Peptide D-3007]”, the “peptide concentration that inhibited more than 90% of adhered biofilm biomass, E. coli (O157:H7)” value in the data set on E. coli O157:H7 came out at 4 µM. Moreover, the “peptide concentration that inhibited more than 90% of adhered biofilm biomass, S. typhimurium (ATCC 14028)” value in data set [1] was found to be 4 µM. Also, the “peptide concentration that inhibited more than 90% of adhered biofilm biomass, S. aureus (C623)” value in data set [2] stood at 8 µM. In addition, the “peptide concentration that inhibited more than 90% of adhered biofilm biomass, P. aeruginosa (PAO1)” value in the data set on P. aeruginosa (PAO1) worked out at 8 µM.

As for “RRWIRVAVILRV ([dR][dR][dW][dI][dR][dV][dA][dV][dI][dL][dR][dV]) [RI-1018, reference compound]”, the “peptide concentration that inhibited more than 90% of adhered biofilm biomass, E. coli (O157:H7)” value in the data set on E. coli O157:H7 turned out to be 1 µM. For the same substance, the “peptide concentration that inhibited more than 90% of adhered biofilm biomass, S. typhimurium (ATCC 14028)” value in data set [1] was found to be 2 µM. Also, in [2], the “peptide concentration that inhibited more than 90% of adhered biofilm biomass, S. aureus (C623)” value came out at 8 µM. Moreover, in the data set on P. aeruginosa (PAO1), the “peptide concentration that inhibited more than 90% of adhered biofilm biomass, P. aeruginosa (PAO1)” value is 4 µM.

With “LWQLWLKLKLKG-NH2 [Peptide 3013, LWQLWLKLKLKG]”, the “MIC Bb” value in data set [3] turned out to be 16 mg/L. Moreover, the “MIC Hs” value with Histophilus somnus (Hs) [4] was 2 mg/L. Further, the “MIC Mh” value in [5] was more than 64 mg/L. The “MIC Pm” value in data set [6] was found to be 32 mg/L. Besides, the “MIC Pa” value in data set [7] is more than 64 mg/L. Besides, the “MIC Se” value in data set [8] came to 2 mg/L. Besides, the “MIC Sp” value in data set [9] is less than 1 mg/L. The “MIC Sa” value in [10] was found to be 2 mg/L. Besides, in data set [11], the “MIC Sd” value was 2 mg/L. For the same substance, in the data set on Streptococcus suis (Ss) [12], the “MIC Ss” value turned out to be 64 mg/L. Further, the “MIC Su” value in [13] was 4 mg/L. Moreover, the “MIC E. coli” value in the data set on E. coli (Ec) [14] is more than 64 mg/L. Further, the “MIC Ec” value with E. coli (Ec) [14] is more than 64 mg/L. In addition, the “MIC S. aureus” value against S. aureus (Sau) [15] was more than 64 mg/L. Further, the “MIC Sau” value in the data set with S. aureus (Sau) [15] was more than 64 mg/L. The MBIC in data set [16] was more than 64 µg/mL; in the data set with Histophilus somnus (Hs) [17] it was 4 µg/mL; in data set [18], more than 64 µg/mL; in data set [19], 2 µg/mL; in data set [20], more than 64 µg/mL; in data set [21], more than 64 µg/mL. In addition, the MBIC in [22] was 1 µg/mL; in data set [23], 32 µg/mL; in [24], 2 µg/mL; in the data set on Streptococcus suis (Ss) [25] it was 16 µg/mL; in data set [26], 8 µg/mL; in the data set on E. coli (Ec) [27], more than 64 µg/mL. In the data set with S. aureus (Sau) [28], this substance displayed an MBIC of 32 µg/mL. Besides, in the data set with E. coli (Ec) [27], the “MBIC E. coli” value is more than 64 µg/mL. The “MBIC S. aureus” value in the data set on S. aureus (Sau) [28] amounted to 32 µg/mL. The “MIC (μM) MHB” value in [29] amounted to 32 µM. Further, the “MIC (μM) TSB with 1% Glucose” value in [29] was more than 64 µM. For the same substance, the “% Toxicity (LDH Release)” value in the data set on PBMCs is given as 14.1%.

As for “KRKLVVKLRLWI ([dK][dR][dK][dL][dV][dV][dK][dL][dR][dL][dW][dI]) [RI-3006]”, the “peptide concentration that inhibited more than 90% of adhered biofilm biomass, E. coli (O157:H7)” value in the data set with E. coli O157:H7 worked out at 4 µM. The “peptide concentration that inhibited more than 90% of adhered biofilm biomass, S. typhimurium (ATCC 14028)” value in data set [1] came to 4 µM. The “peptide concentration that inhibited more than 90% of adhered biofilm biomass, S. aureus (C623)” value in data set [2] was 8 µM. For the same substance, in the data set with P. aeruginosa (PAO1), the “peptide concentration that inhibited more than 90% of adhered biofilm biomass, P. aeruginosa (PAO1)” value was 4 µM.

For “KIVIRIILQVIK-NH2 [Peptide 3015, KIVIRIILQVIK]”, the “MIC Bb” value in [3] stood at 64 mg/L. In the data set with Histophilus somnus (Hs) [4], the “MIC Hs” value was more than 64 mg/L. The “MIC Mh” value in data set [5] is more than 64 mg/L. In addition, the “MIC Pm” value in [6] turned out to be 64 mg/L. In [7], the “MIC Pa” value is 64 mg/L. Moreover, the “MIC Se” value in data set [8] was more than 64 mg/L. Also, in data set [9], the “MIC Sp” value stood at 16 mg/L. Moreover, the “MIC Sa” value in [10] is more than 64 mg/L. For the same substance, the “MIC Sd” value in [11] amounted to 32 mg/L. In addition, in the data set on Streptococcus suis (Ss) [12], the “MIC Ss” value stood at 64 mg/L. For the same substance, the “MIC Su” value in [13] was 64 mg/L. In addition, the “MIC E. coli” value against E. coli (Ec) [14] was more than 64 mg/L. For the same substance, the “MIC Ec” value against E. coli (Ec) [14] is more than 64 mg/L. For the same substance, the “MIC S. aureus” value with S. aureus (Sau) [15] is more than 64 mg/L. Besides, the “MIC Sau” value against S. aureus (Sau) [15] was more than 64 mg/L. Moreover, the MBIC is more than 64 µg/mL in [16]; 16 µg/mL in the data set on Histophilus somnus (Hs) [17]; 16 µg/mL in data set [18]; 1 µg/mL in data set [19]; 32 µg/mL in [20]; 2 µg/mL in data set [21]. Besides, the MBIC in data set [22] was 8 µg/mL; in [23] it was more than 64 µg/mL; in [24], 4 µg/mL; in the data set with Streptococcus suis (Ss) [25], 64 µg/mL; in [26] it was 4 µg/mL; in the data set on E. coli (Ec) [27] it was 64 µg/mL. The substance further had an MBIC in the data set with S. aureus (Sau) [28] of 64 µg/mL. Further, the “MBIC E. coli” value with E. coli (Ec) [27] came out at 64 µg/mL. In the data set with S. aureus (Sau) [28], the “MBIC S. aureus” value came out at 64 µg/mL. For the same substance, in data set [29], the “MIC (μM) MHB” value is 64 µM. Besides, the “MIC (μM) TSB with 1% Glucose” value in [29] is more than 64 µM. Also, the “% Toxicity (LDH Release)” value with PBMCs was −3.8%.

As to “IWLRLKVVLKRK (not fully specified; also: D-amino acid(s), positions not given here) [Peptide D-3006]”, the “peptide concentration that inhibited more than 90% of adhered biofilm biomass, E. coli (O157:H7)” value with E. coli O157:H7 worked out at 2 µM. For the same substance, in data set [1], the “peptide concentration that inhibited more than 90% of adhered biofilm biomass, S. typhimurium (ATCC 14028)” value worked out at 2 µM. In addition, in [2], the “peptide concentration that inhibited more than 90% of adhered biofilm biomass, S. aureus (C623)” value was found to be 4 µM. Also, the “peptide concentration that inhibited more than 90% of adhered biofilm biomass, P. aeruginosa (PAO1)” value in the data set with P. aeruginosa (PAO1) was 2 µM.

The values are drawn from US20210138025A1, “CATIONIC PEPTIDES WITH IMMUNOMODULATORY AND/OR ANTI-BIOFILM ACTIVITIES” (priority 2018, published 2021).
